Results published in patent US6765011B2, “7-heterocyclyl quinoline and thieno[2,3-b]pyridine derivatives useful as antagonists of gonadotropin releasing hormone” (Ortho-McNeil Pharmaceutical, Inc., priority 2000, dated 2004).
pIC50: −log10 of the molar value. Structures can show the parent of a compound that is named as a salt.

Legend:
[1] = molecular target: T1, GnRHR (Hek 293 cells with the GnRHR gene) (Homo sapiens, UniProt P30968); test: LUCIFERASE Assay for GnRH (hCG promoter luciferase reporter); type: cell-based; settings: antagonist format, against 0.6 nM Histrelin
T1 construct: expressed in transfected cells; host or cells: HEK 293 cells carrying the GnRHR gene, transfected with an hCG promoter-luciferase reporter
T1 sequence (P30968 1-328): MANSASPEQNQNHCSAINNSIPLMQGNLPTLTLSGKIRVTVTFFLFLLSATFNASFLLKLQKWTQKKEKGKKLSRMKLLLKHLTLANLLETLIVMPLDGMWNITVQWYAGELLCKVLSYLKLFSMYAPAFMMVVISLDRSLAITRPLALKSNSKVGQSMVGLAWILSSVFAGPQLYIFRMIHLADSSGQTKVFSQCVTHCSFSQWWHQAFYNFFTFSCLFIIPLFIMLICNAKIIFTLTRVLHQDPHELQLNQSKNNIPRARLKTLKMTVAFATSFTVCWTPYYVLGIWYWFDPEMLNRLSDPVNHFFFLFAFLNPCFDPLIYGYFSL
Method: LUCIFERASE Assay for GnRH
Hek 293 cells with the GnRHR gene were transfected with the hCG promoter and the luciferase reporter system. On day 1, the cells were plated at a density of 80,000 cells per well on a Poly-D-lysine pre-coated 96 well plate. The plates were incubated at 37° C. for 24 hours. On day 2, the spent media was decanted and replaced with fresh media. Test compounds, standard and controls were added to individual wells. All the dilutions were done in 7.5% DMSO/(αMEM media. The assay was run in both agonist and antagonist format. For the antagonist format, the assay measurements were run against a standard of 0.6 nM Histrelin. On day 3, the levels of luciferase production were measured in a chemiluminescence assay using Enhanced Luciferase Assay Kit. The results were expressed as % Inhibition using the following formula: […]
RLU Relative Light Units, a measure of chemiluminescence
Agonist [RLU value(test compound)−(Background/0.6 nM Histrelin)−Background]*100
Antagonist (1−[(RLU value−(Background/0.6 nM Histrelin)−Background)*100])
The calculated percentages were plotted on a graph using Graph Pad Prizm and the IC50/EC50 values determined.

[2] = molecular target: T2, membrane-bound GnRH receptor (Rattus norvegicus, UniProt P30969); test: GnRH Receptor Binding Assay ([125I]-histrelin competition, rat pituitary homogenate); settings: [125I]-histrelin displacement, female and male rat pituitary homogenate; values without parentheses = IC50; read-out: Binding, IC50 (B % @ 30 μM)
T2 construct: from tissue; host or cells: rat pituitary homogenate (female and male, equal mixture)
T2 sequence (P30969 1-327): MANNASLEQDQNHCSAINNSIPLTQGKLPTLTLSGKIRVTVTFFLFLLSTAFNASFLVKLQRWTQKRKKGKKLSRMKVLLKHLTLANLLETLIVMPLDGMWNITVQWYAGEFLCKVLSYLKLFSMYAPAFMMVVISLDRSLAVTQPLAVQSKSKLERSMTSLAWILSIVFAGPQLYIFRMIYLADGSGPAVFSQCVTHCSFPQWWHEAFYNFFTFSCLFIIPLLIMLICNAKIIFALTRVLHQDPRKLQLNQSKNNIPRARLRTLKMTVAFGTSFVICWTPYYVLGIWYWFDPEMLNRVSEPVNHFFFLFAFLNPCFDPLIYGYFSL
Excerpt: GnRH Receptor Binding Assay
A homogenate prepared from an equal mixture of female and male rat pituitaries was used as the source of the membrane-bound GnRH receptor. The receptor was allowed to interact in solution with [^125I]-histrelin alone or in combination with a competitive ligand (the compound being tested). The bound radiolabeled ligand was separated from the free (unbound) radiolabeled ligand by filtration through glass filter mats using a 96-well plate harvesting system (Tomtec Mach II 96). In the absence of a competitive ligand, a maximum amount of radiolabeled ligand is bound to the receptor and trapped by the glass filter mats. […] The amount of receptor-bound [^125I]-histrelin on the filter mat was determined using a Wallac Betaplate™ Liquid Scintillation Counter. Binding was determined as follows:
B0 maximum concentration of compound
Average NSB: (NSB1+NSB2)/2
Corrected B0: Average B0−Average NSB
% inhibition of Corrected B0 (or maximum response) was calculated as follows:
% Inhibition=100−[((Actual counts per minute−Average NSB)/Corrected B0)*100]

[3] = tested on: rat anterior pituitary cells; test: Primary Pituitary Cell Culture Assay (luteinizing hormone in media after 1 nM GnRH); type: cell-based; settings: inhibition of luteinizing hormone release, male rat primary pituitary cells
Method: Primary Pituitary Cell Culture Assay
Male rats (between immature and adult) were sacrificed and the anterior pituitaries were collected from them. The pituitaries were dissociated and the cells were plated at a concentration of 0.33×10^6 cells/well on day 1. On day 3 the media on the cells was flushed and replaced with fresh media. The test compound was then added to the plated cells at a concentration ranging from 1 nM to 1000 nM. The plates were incubated at 37° C. at 5% CO2 for 2 days. On Day 5 the media was flushed again and replaced with fresh media. To the plates were then added test compound and 1 nM GnRH. The cells were incubated for 4 hours, the media was collected by centrifuging the plates at 1200 rpm Sorvall RT7 for 10 minutes, 900 μL of supernatant was pipetted from each well and dispensed to a 96 well plate. The deep well plates were covered and stored at […] for a day. The plates are then evaluated by ELISA ([…]) to determine the concentration of lutenizing hormone in the media. The assay was repeated at varying concentrations of the test compounds to determine IC50 values. The IC50 value is defined as the concentration of test compound at which 50% inhibition was achieved.

pIC50 [1]	pIC50 [2]	pIC50 [3]	Compound
5.00	4.49		CCOC(=O)c1cn(Cc2c(F)cccc2F)c2cc(-c3ccsc3)c(CN(C)Cc3ccccc3)cc2c1=O [Compound 1, 6-(N-Benzyl-N-methylaminomethyl)-7-(thien-3-yl)-1-(2,6-difluorobenzyl)-1,4-dihydro-4-oxoquinoline-3-carboxylic Acid Ethyl Ester]
5.49		5.61	CCOC(=O)c1cn(Cc2c(F)cccc2F)c2cc(-c3cc4ccccc4o3)c(CN(C)Cc3ccccc3)cc2c1=O [Compound 2, 6-(N-Benzyl-N-methylaminomethyl)-7-(benzofuran-2-yl)-1-(2,6-difluorobenzyl)-1,4-dihydro-4-oxoquinoline-3-carboxylic Acid Ethylester]
	4.80		CN(Cc1ccccc1)Cc1cc2c3n[nH]c(=O)c-3cn(Cc3c(F)cccc3F)c2cc1Br [Compound 3, 2,5-Dihydro-7-bromo-8-[[methyl(phenylmethyl)amino]methyl]-5-[(2,6-difluorophenyl)methyl]-3H-pyrazolo[4,3-c]quinolin-3-one]
	6.00		CN(Cc1ccccc1)Cc1cc2c3n[nH]c(=O)c-3cn(Cc3c(F)cccc3F)c2cc1-c1cc2ccccc2o1 [Compound 4, 2,5-Dihydro-7-(benzofuran-2-yl)-8-[[methyl(phenylmethyl)amino]methyl]-5-[(2,6-difluorophenyl)methyl]-3H-pyrazolo[4,3-c]quinolin-3-one]
	5.30		CN(Cc1ccccc1)Cc1cc2c3nnc(OCc4ccccc4)c-3cn(Cc3c(F)cccc3F)c2cc1-c1cc2ccccc2o1 [Compound 5, 7-(Benzofuran-2-yl)-3-[(phenylmethyl)oxy]-5-[(2,6-difluorophenyl)methyl]-8-[[methyl(phenylmethyl)amino]methyl]-5H-pyrazolo[4,3-c]quinoline]
	5.30		CCOc1nnc2c3cc(CN(C)Cc4ccccc4)c(-c4cc5ccccc5o4)cc3n(Cc3c(F)cccc3F)cc1-2 [Compound 6, 7-(Benzofuran-2-yl)-3-ethoxy-5-[(2,6-difluorophenyl)methyl]-8-[[methyl(phenylmethyl)amino]methyl]-5H-pyrazolo[4,3-c]quinoline HCl]
	5.80	5.83	COc1ccc(-c2sc3c(c2CN(C)Cc2ccccc2)c(=O)c(C(=O)NN)cn3Cc2ccccc2OC)cc1 [Compound 7, 4,7-Dihydro-2-(4-methoxyphenyl)-7-[(2-methoxyphenyl)methyl]-3-[[methyl(phenylmethyl)amino]methyl]-4-oxo-thieno[2,3-b]pyridine-5-carboxylic Acid, Hydrazide bis-Hydrochloride]
	4.52		COc1ccc(-c2sc3c(c4n[nH]c(=O)c-4cn3Cc3ccccc3OC)c2CN(C)Cc2ccccc2)cc1 [Compound 8, 2,5-Dihydro-7-(4-methoxyphenyl)-5-[(2-methoxyphenyl)methyl]-8-[[methyl(phenylmethyl)amino]methyl]-3H-pyrazolo[3,4-d]thieno[2,3-b]pyridin-3-one]
